{"source": "patent US20110123642A1", "about": "(priority 2008, published 2011)", "origin": "cited, not measured here", "data": [{"smiles": "O=C([O-])CC[C@@H](C(=O)[O-])N(CC(=O)[O-])CC(=O)[O-].[Na+].[Na+].[Na+].[Na+]", "note": "[GLDA, L-glutamic acid-N,N-diacetic acid, tetrasodium salt]", "values": [{"measurement": "pKa", "value": 9.4}, {"measurement": "pKa^1", "value": 9.4}, {"measurement": "pKa^2", "value": 5.0}, {"measurement": "pKa^3", "value": 3.5}, {"measurement": "pKa^4", "value": 2.6}]}, {"smiles": "O=C(O)CN(CC(=O)O)CC(=O)O", "note": "[NTA, reference compound]", "values": [{"measurement": "pKa", "value": 9.7}]}, {"smiles": "O=C(O)CN(CCN(CC(=O)O)CC(=O)O)CC(=O)O", "note": "[EDTA, reference compound]", "values": [{"measurement": "pKa", "value": 10.2}]}]}
